From paper PMC2192852 (The Journal of Experimental Medicine, 1996)
Where no end group is shown, it is not given here. [ ]: non-standard residue; d: D form. Abu = CC[C@H](N)C(=O)O

system: 3.L2 TCR; assay: T cell hybridoma agonist assay: IL-2 production by the 3.L2.12 hybridoma; assay type: cell-based; conditions: Fig. 6, single agonist assay, representative of at least three experiments

Row | Substance | Concentration at which peptide is active (IL-2 production)
1 | GKKVITAFNEGLK [Hb(64-76), reference compound] | 0.01 µM

system: CH27 B cell lymphoma; assay: not given; assay type: cell-based; conditions: Fig. 4; from EC40 in apoptosis assay relative to wild-type peptide

Row | Substance | Relative Activity (Hb(64-76) arbitrarily assigned 100)
2 | GKKVITAFCEGLK [C72] | 2
3 | GKKVITAF[Abu]EGLK [Abu72] | 5
4 | GKKVITAFNEGLK [Hb(64-76), reference compound] | 100
5 | GKKVITAFTEGLK [T72] | 2
6 | GKKVITAFVEGLK [V72] | 2

same assay, conditions: Fig. 5; 3.L2 clone, 24 h

Row | Substance | Induction of apoptosis of CH27
7 | GKKVITAFGEGLK [G72] | did not induce any apoptosis
8 | GKKVITAFLEGLK [L72] | did not induce any apoptosis
9 | GKKVITAFSEGLK [$72] | did not induce any apoptosis
10 | GKKVITAFEEGLK [E72] | negative

system: 3.L2 TCR; assay: not given; assay type: cell-based; conditions: Fig. 3; CH27 prepulsed with 0.1 µM Hb(64-76)

Row | Substance | Concentration at which slight inhibition of the 3.L2.12 response was seen
11 | GKKVITAFDEGLK [D72] | > 100 µM
12 | GKKVITAFYEGLK [Y72] | > 100 µM
13 | GKKVITAFMEGLK [M72] | > 100 µM
